According to US20190388425A1, “SUBSTITUTED IMIDAZOPYRIDINPYRIMIDINES” (Bayer Pharma Aktiengesellschaft, priority 2017, published 2019):

Target: T1, human full-length MKNK1 (Homo sapiens, UniProt Q9BUB5, T385D)
T1 construct: GST (N); purchased Carna Biosciences 02-145; host or cells: insect cells (baculovirus expression system)
Assay: MKNK1 kinase high ATP assay (TR-FRET)
Format: biochemical
Details: TR-FRET, 2 mM ATP (high ATP), 15 min preincubation with enzyme, 30 min reaction at 22° C.; read-out: MKNK1 IC50
Summary of the method: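 Full-length human MKNK1 (T385D) preincubated 15 min at 22 °C with compound in HEPES pH 7.5/MgCl2/DTT buffer; reaction with 2 mM ATP (final) and 0.06 μM biotinylated peptide (final), 30 min at 22 °C.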

T1 sequence (Q9BUB5 1-424 isoform Q9BUB5-2 T344D): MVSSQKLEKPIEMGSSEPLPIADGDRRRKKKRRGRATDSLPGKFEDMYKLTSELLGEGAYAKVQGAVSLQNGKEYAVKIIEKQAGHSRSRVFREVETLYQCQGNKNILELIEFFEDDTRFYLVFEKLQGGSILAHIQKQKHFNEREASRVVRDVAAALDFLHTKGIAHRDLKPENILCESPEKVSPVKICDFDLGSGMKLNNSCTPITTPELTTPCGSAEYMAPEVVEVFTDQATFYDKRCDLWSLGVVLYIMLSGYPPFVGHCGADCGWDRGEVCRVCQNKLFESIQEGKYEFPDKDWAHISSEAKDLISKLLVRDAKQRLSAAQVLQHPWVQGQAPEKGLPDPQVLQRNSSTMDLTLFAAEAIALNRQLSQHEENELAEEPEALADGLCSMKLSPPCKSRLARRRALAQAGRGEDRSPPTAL

Cc1cc(Nc2ncnc3sc4c(c23)CC[C@H](C(=O)N2CCN(C)[C@H](C)C2)C4)c(=O)n2c1C(=O)NC21CCC(F)(F)CC1 [Example 57, 6′-{[(7S)-7-{[(3R)-3,4-Dimethylpiperazin-1-yl]carbonyl}-5,6,7,8-tetrahydro[1]benzothieno[2,3-d]pyrimidin-4-yl]amino}-4,4-difluoro-8′-methyl-2′H-spiro[cyclohexane-1,3′-imidazo[1,5-a]pyridine]-1′,5′-dione]
IC50: 1.4 nM

Cc1cc(Nc2ncnc3sc4c(c23)CC[C@H](C(=O)N2C[C@H]3C[C@@H]2CO3)C4)c(=O)n2c1C(=O)NC21CCC(F)(F)CC1 [Example 58, 4,4-Difluoro-8′-methyl-6′-({(7S)-7-[(1R,4R)-2-oxa-5-azabicyclo[2.2.1]hept-5-ylcarbonyl]-5,6,7,8-tetrahydro[1]benzothieno[2,3-d]pyrimidin-4-yl}amino)-2′H-spiro[cyclohexane-1,3′-imidazo[1,5-a]pyridine]-1′,5′-dione]
IC50: 0.5 nM

Cc1cc(Nc2ncnc3sc4c(c23)CC[C@H](C(=O)O)C4)c(=O)n2c1C(=O)N[C@]21CC[C@@](O)(C(F)(F)F)CC1 [Example 59, (7S)-4-{[(cis)-4-Hydroxy-8′-methyl-1′,5′-dioxo-4-(trifluoromethyl)-1′,5′-dihydro-2′H-spiro[cyclohexane-1,3′-imidazo[1,5-a]pyridin]-6′-yl]amino}-5,6,7,8-tetrahydro[1]benzothieno[2,3-d]pyrimidine-7-carboxylic acid]
IC50: 37.9 nM

Cc1cc(Nc2ncnc3sc4c(c23)CC[C@H](C(=O)N(C)C)C4)c(=O)n2c1C(=O)N[C@]21CC[C@@](O)(C(F)(F)F)CC1 [Example 60, (7S)-4-{[(cis)-4-Hydroxy-8′-methyl-1′,5′-dioxo-4-(trifluoromethyl)-1′,5′-dihydro-2′H-spiro[cyclohexane-1,3′-imidazo[1,5-a]pyridin]-6′-yl]amino}-N,N-dimethyl-5,6,7,8-tetrahydro[1]benzothieno[2,3-d]pyrimidine-7-carboxamide]
IC50: 9.5 nM

Cc1cc(Nc2ncnc3sc4c(c23)CC[C@H](C(=O)N2CCC2)C4)c(=O)n2c1C(=O)N[C@]21CC[C@@](O)(C(F)(F)F)CC1 [Example 61, (cis)-6′-{[(7S)-7-(Azetidin-1-ylcarbonyl)-5,6,7,8-tetrahydro[1]benzothieno[2,3-d]pyrimidin-4-yl]amino}-4-hydroxy-8′-methyl-4-(trifluoromethyl)-2′H-spiro[cyclohexane-1,3′-imidazo[1,5-a]pyridine]-1′,5′-dione]
IC50: 8.4 nM

Cc1cc(Nc2ncnc3sc4c(c23)CC[C@H](C(=O)N2CC(N(C)C)C2)C4)c(=O)n2c1C(=O)N[C@]21CC[C@@](O)(C(F)(F)F)CC1 [Example 62]
IC50: 6.5 nM

Cc1cc(Nc2ncnc3sc4c(c23)CC[C@H](C(=O)N2CC[C@H](N(C)C)C2)C4)c(=O)n2c1C(=O)N[C@]21CC[C@@](O)(C(F)(F)F)CC1 [Example 63, (cis)-6′-{[(7S)-7-{[(3S)-3-(Dimethylamino)pyrrolidin-1-yl]carbonyl}-5,6,7,8-tetrahydro[1]benzothieno[2,3-d]pyrimidin-4-yl]amino}-4-hydroxy-8′-methyl-4-(trifluoromethyl)-2′H-spiro[cyclohexane-1,3′-imidazo[1,5-a]pyridine]-1′,5′-dione]
IC50: 1.6 nM

Cc1cc(Nc2ncnc3sc4c(c23)CC[C@H](C(=O)N2C[C@H]3C[C@@H]2CO3)C4)c(=O)n2c1C(=O)N[C@]21CC[C@@](O)(C(F)(F)F)CC1 [Example 64, (cis)-4-Hydroxy-8′-methyl-6′-({(7S)-7-[(1R,4R)-2-oxa-5-azabicyclo[2.2.1]hept-5-ylcarbonyl]-5,6,7,8-tetrahydro[1]benzothieno[2,3-d]pyrimidin-4-yl}amino)-4-(trifluoromethyl)-2′H-spiro[cyclohexane-1,3′-imidazo[1,5-a]pyridine]-1′,5′-dione]
IC50: 3.8 nM

Cc1cc(Nc2ncnc3sc4c(c23)CC[C@H](C(=O)N(C)C)C4)c(=O)n2c1C(=O)NC21CS(=O)(=O)C1 [Example 66, (7S)—N,N-Dimethyl-4-[(8-methyl-1′,1′-dioxido-1,5-dioxo-1,5-dihydro-2H-spiro[imidazo[1,5-a]pyridine-3,3′-thietan]-6-yl)amino]-5,6,7,8-tetrahydro[1]benzothieno[2,3-d]pyrimidine-7-carboxamide]
IC50: 3.1 nM

Cc1cc(Nc2ncnc3sc4c(c23)CC[C@H](C(=O)N2CCC2)C4)c(=O)n2c1C(=O)NC21CS(=O)(=O)C1 [Example 67, 6-{[(7S)-7-(Azetidin-1-ylcarbonyl)-5,6,7,8-tetrahydro[1]benzothieno[2,3-d]pyrimidin-4-yl]amino}-8-methyl-2H-spiro[imidazo[1,5-a]pyridine-3,3′-thietane]-1,5-dione 1′,1′-dioxide]
IC50: 2 nM

Cc1cc(Nc2ncnc3sc4c(c23)CC[C@H](C(=O)N2CC(C#N)C2)C4)c(=O)n2c1C(=O)NC21CS(=O)(=O)C1 [Example 68, 1-({(7S)-4-[(8-Methyl-1′,1′-dioxido-1,5-dioxo-1,5-dihydro-2H-spiro[imidazo[1,5-a]pyridine-3,3′-thietan]-6-yl)amino]-5,6,7,8-tetrahydro[1]benzothieno[2,3-d]pyrimidin-7-yl}carbonyl)azetidine-3-carbonitrile]
IC50: 2.5 nM

Cc1cc(Nc2ncnc3sc4c(c23)CC[C@H](C(=O)N2CC(N(C)C)C2)C4)c(=O)n2c1C(=O)NC21CS(=O)(=O)C1 [Example 69, 6-{[(7S)-7-{[3-(Dimethylamino)azetidin-1-yl]carbonyl}-5,6,7,8-tetrahydro[1]benzothieno[2,3-d]pyrimidin-4-yl]amino}-8-methyl-2H-spiro[imidazo[1,5-a]pyridine-3,3′-thietane]-1,5-dione 1′,1′-dioxide]
IC50: 2 nM

Cc1cc(Nc2ncnc3sc4c(c23)CC[C@H](C(=O)N2CC[C@H](N(C)C)C2)C4)c(=O)n2c1C(=O)NC21CS(=O)(=O)C1 [Example 70, 6-{[(7S)-7-{[(3S)-3-(Dimethylamino)pyrrolidin-1-yl]carbonyl}-5,6,7,8-tetrahydro[1]benzothieno[2,3-d]pyrimidin-4-yl]amino}-8-methyl-2H-spiro[imidazo[1,5-a]pyridine-3,3′-thietane]-1,5-dione 1′,1′-dioxide]
IC50: 0.8 nM

Cc1cc(Nc2ncnc3sc4c(c23)CC[C@H](C(=O)N2CCN(C)[C@H](C)C2)C4)c(=O)n2c1C(=O)NC21CS(=O)(=O)C1 [Example 71, 6-{[(7S)-7-{[(3R)-3,4-Dimethylpiperazin-1-yl]carbonyl}-5,6,7,8-tetrahydro[1]benzothieno[2,3-d]pyrimidin-4-yl]amino}-8-methyl-2H-spiro[imidazo[1,5-a]pyridine-3,3′-thietane]-1,5-dione 1′,1′-dioxide]
IC50: 0.8 nM

Cc1cc(Nc2ncnc3sc4c(c23)CC[C@H](C(=O)N2C[C@H]3C[C@@H]2CO3)C4)c(=O)n2c1C(=O)NC21CS(=O)(=O)C1 [Example 72, 8-Methyl-6-({(7S)-7-[(1R,4R)-2-oxa-5-azabicyclo[2.2.1]hept-5-ylcarbonyl]-5,6,7,8-tetrahydro[1]benzothieno[2,3-d]pyrimidin-4-yl}amino)-2H-spiro[imidazo[1,5-a]pyridine-3,3′-thietane]-1,5-dione 1′,1′-dioxide]
IC50: 0.7 nM

O=C1NC2(CCCCC2)n2c1c(Cl)cc(Nc1ncnc3sc4c(c13)CC[C@H](C(=O)O)C4)c2=O [Example 73, (7S)-4-[(8′-Chloro-1′,5′-dioxo-1′,5′-dihydro-2′H-spiro[cyclohexane-1,3′-imidazo[1,5-a]pyridin]-6′-yl)amino]-5,6,7,8-tetrahydro[1]benzothieno[2,3-d]pyrimidine-7-carboxylic acid]
IC50: 1.6 nM

NC(=O)[C@H]1CCc2c(sc3ncnc(Nc4cc(Cl)c5n(c4=O)C4(CCCCC4)NC5=O)c23)C1 [Example 74, (7S)-4-[(8′-Chloro-1′,5′-dioxo-1′,5′-dihydro-2′H-spiro[cyclohexane-1,3′-imidazo[1,5-a]pyridin]-6′-yl)amino]-5,6,7,8-tetrahydro[1]benzothieno[2,3-d]pyrimidine-7-carboxamide]
IC50: 0.9 nM

CN(C)C(=O)[C@H]1CCc2c(sc3ncnc(Nc4cc(Cl)c5n(c4=O)C4(CCCCC4)NC5=O)c23)C1 [Example 75, (7S)-4-[(8′-Chloro-1′,5′-dioxo-1′,5′-dihydro-2′H-spiro[cyclohexane-1,3′-imidazo[1,5-a]pyridin]-6′-yl)amino]-N,N-dimethyl-5,6,7,8-tetrahydro[1]benzothieno[2,3-d]pyrimidine-7-carboxamide]
IC50: 1.7 nM

O=C1NC2(CCCCC2)n2c1c(Cl)cc(Nc1ncnc3sc4c(c13)CC[C@H](C(=O)N1CCC1)C4)c2=O [Example 76, 6′-{[(7S)-7-(Azetidin-1-ylcarbonyl)-5,6,7,8-tetrahydro[1]benzothieno[2,3-d]pyrimidin-4-yl]amino}-8′-chloro-2′H-spiro[cyclohexane-1,3′-imidazo[1,5-a]pyridine]-1′,5′-dione]
IC50: 0.9 nM

N#CC1CN(C(=O)[C@H]2CCc3c(sc4ncnc(Nc5cc(Cl)c6n(c5=O)C5(CCCCC5)NC6=O)c34)C2)C1 [Example 77, 1-({(7S)-4-[(8′-Chloro-1′,5′-dioxo-1′,5′-dihydro-2′H-spiro[cyclohexane-1,3′-imidazo[1,5-a]pyridin]-6′-yl)amino]-5,6,7,8-tetrahydro[1]benzothieno[2,3-d]pyrimidin-7-yl}carbonyl)azetidine-3-carbonitrile]
IC50: 0.8 nM

CN(C)[C@H]1CCN(C(=O)[C@H]2CCc3c(sc4ncnc(Nc5cc(Cl)c6n(c5=O)C5(CCCCC5)NC6=O)c34)C2)C1 [Example 78, 8′-Chloro-6′-{[(7S)-7-{[(3S)-3-(dimethylamino)pyrrolidin-1-yl]carbonyl}-5,6,7,8-tetrahydro[1]benzothieno[2,3-d]pyrimidin-4-yl]amino}-2′H-spiro[cyclohexane-1,3′-imidazo[1,5-a]pyridine]-1′,5′-dione]
IC50: 4.8 nM
